Patent US20040132817A1, “Use of an histone deacetylase inhibitor for the treatment of diseases associated with an hpv infection” (priority 2001, published 2004)

Tested on: "1637" cells
Assay: Flow-cytometric cell cycle analysis of "1637" keratinocytes (HPV-16 E6/E7 under HPV16 URR)
Type: cell-based, human
Conditions: 6 mM sodium butyrate, 16 hours
Excerpt: (B) Flow-cytometric analysis. Quantification of the proportion of cells in the cell cycle phases G1, S and G2/M (standard deviations are the mean of three independent experiments).
HPV18-positive cervical Carcinoma cells (HeLa) were maintained in Dulbecco's modified Eagle's medium (DMEM), supplemented with 10% fetal calf serum (Gibco BRL, Rockville, USA), 1% penicillin and streptomycin (Sigma, Deisenhofen, Deutschland). Primary human keratinocytes, immortalized by E6-, E7- and E6/E7-open reading frames carrying amphotroptic retroviruses were cultivated in “Keratinocyte Medium Kit” (Sigma). Human foreskin keratinocytes transformed with HPV-16 E6/E7 either under the control of a human β-actin promoter (,1321″) or under the control of the authentic upstream regulatory region HPV (,1637″) were a kind gift of Dr. R. Schlegel (Georgetown University, Washington, USA) (Münger et al., J. Virol. 63 (1989), 4414-4423; Villa & Schlegel, Virology 181 (1991), 374-377). […]
Cells were harvested by trypsinisation, washed twice with phosphate-buffered saline (PBS) and fixed overnight in 70% ethanol. […] Cell cycle analysis and quantification of flow cytometric data was performed according to Dean and Jett, J. Cell. […]

CCCC(=O)[O-].[Na+] [sodium butyrate]
proportion of cells within S-phase ("1621" as printed, untreated 24.9%): 4.7%
cells in G1 ("1621" keratinocytes as printed, untreated 65.3%): 81.2%
